Test results: patent US20240100074A1, “Clinical Dosing Schedule of Inositol Phosphate Oligo(Ethylene Glycol) Compounds” (VIFOR (INTERNATIONAL) AG, priority 2021, published 2024)
“Also recorded” adds a separate entry of the source. Values belong to the molecule of their own block, whether it stands above or below them.

Assays:
[1] = tested on: Abcc6−/− mice (mouse model of PXE); test: Prevention study: histologic (von Kossa) evaluation of vibrissae calcification in muzzle skin; assay type: in vivo; details: for calcification in the dermal sheath of vibrissae in muzzle skin (von Kossa) / inhibition of ectopic calcification: osmotic pump
Description: (§1) Abcc6^−/− knock-out mice (Abcc6^−/−) on C57BL/6J background were generated as described previously (J. F. Klement et al., Mol Cell Biol 2005, 25, 8299). C57BL/6J mice from The Jackson Laboratory (Bar Harbor, ME) were used as wild-type controls (WT). In prevention study, 6-week-old Abcc6^−/− mice were administered with (I a) by periodic subcutaneous injections or continuous administration via subcutaneous ALZET osmotic pump model 2006 (DURECT Corp, Cupertino, CA) for duration of 6 weeks. In reversal study, 12-week-old Abcc6^−/− mice were administered (I a) at 4 mg/kg/day via osmotic pumps for 12 weeks. All mice were maintained on a standard diet and sacrificed at 12 weeks of age, 6 weeks after initiation of treatment (prevention study), or at 24 weeks of age, 12 weeks after initiation of treatment (reversal study). All protocols were approved by the Institutional Animal Care and Use Committee of Thomas Jefferson University.
(§2) Muzzle skin biopsies (left side) from euthanized mice were collected and fixed in 10% phosphate-buffered formalin and embedded in paraffin. Paraffin sections (6 μm) were stained with Hematoxylin and Eosin or von Kossa using standard procedures. To quantify the mineral deposition, muzzle skin biopsies (right side) were harvested and decalcified with 1.0 M HCl for 48 hours at room temperature. Solubilized calcium was then determined by a colorimetric assay (J. Huang et al., J Invest Dermatol 2019, 139, 1254; Q. Li, J. Huang et al., J Invest Dermatol 2019, 139, 360). The values were normalized to tissue weight. Whole blood was collected by retro-orbital bleeding or cardiac puncture. For subcutaneously injected mice, whole blood was collected 30 minutes after injection of (I a). Whole blood was collected at 2 days, 3 weeks, and 6 weeks after treatment initiation in mice receiving (I a). The concentrations of (I a) in heparin plasma were analyzed on an ultra-fast liquid chromatography, as described previously (A. E. Schantl et al., Nat Commun 2020, 11, 721). The data was analyzed using Kruskal-Wallis nonparametric test.
The Abcc6^−/− mice were administered (I a) by subcutaneous implantation of osmotic pumps at doses of 0.16, 0.8, 4, 20, and 100 mg/kg/day. The untreated wild-type and Abcc6^−/− mice served as negative and positive controls of ectopic calcification. Treatment was initiated at 6 weeks of age, a time point at the earliest stages of ectopic calcification in the Abcc6^−/− mice. The extent of ectopic calcification after 6 weeks of treatment was analyzed by two independent assays measuring calcification in the dermal sheath of vibrissae in muzzle skin, an early and reliable biomarker in this mouse model of PXE. One piece of muzzle skin was processed for semi-quantitative histological evaluation. […] The therapeutic effects of (I a) were substantiated by the calcium content in another muzzle skin biopsy measured using a quantitative chemical assay (FIG. 2A).
The inventors next examined whether periodic, bolus subcutaneous injections of (I a) at the same dose of 4 mg/kg/day, would have similar therapeutic benefits. Six-week-old Abcc6^−/− mice were administered (I a) by subcutaneous injections three times per week corresponding to 4 mg/kg/day. […] Thus, subcutaneous injection of (I a) is effective, albeit less than with continuous delivery at the same dose of 4 mg/kg/day on inhibition of ectopic calcification.
Three additional dose levels of (I a) at weekly subcutaneous injections for a duration of 6 weeks were tested to evaluate the inhibitory effects of (I a) (FIG. 1A). […] The semi-quantitative histologic evaluations of (I a) treatment were consistent with the calcium contents in the muzzle skin measured by a chemical assay (FIG. 2A).

[2] = tested on: Abcc6−/− mice (mouse model of PXE); test: Prevention study: quantitative chemical calcium assay of muzzle skin biopsies; assay type: in vivo; details: 6 weeks
Description: as §1
(§3) Muzzle skin biopsies (left side) from euthanized mice were collected and fixed in 10% phosphate-buffered formalin and embedded in paraffin. […] To quantify the mineral deposition, muzzle skin biopsies (right side) were harvested and decalcified with 1.0 M HCl for 48 hours at room temperature. Solubilized calcium was then determined by a colorimetric assay (J. Huang et al., J Invest Dermatol 2019, 139, 1254; Q. Li, J. Huang et al., J Invest Dermatol 2019, 139, 360). […] The concentrations of (I a) in heparin plasma were analyzed on an ultra-fast liquid chromatography, as described previously (A. E. Schantl et al., Nat Commun 2020, 11, 721). The data was analyzed using Kruskal-Wallis nonparametric test.
The Abcc6^−/− mice were administered (I a) by subcutaneous implantation of osmotic pumps at doses of 0.16, 0.8, 4, 20, and 100 mg/kg/day. […] The extent of ectopic calcification after 6 weeks of treatment was analyzed by two independent assays measuring calcification in the dermal sheath of vibrissae in muzzle skin, an early and reliable biomarker in this mouse model of PXE. One piece of muzzle skin was processed for semi-quantitative histological evaluation. […]

[3] = Plasma concentrations of (I a) in treated Abcc6−/− mice; assay type: in vivo, mouse
Description: as §2
(I a) was undetectable in plasma of untreated Abcc6^−/− mice.
The Tmax of (I a) in plasma after subcutaneous administration in Sprague Dawley rats was reported to be about 30 minutes after injection, the inventors therefore measured (I a) concentrations in plasma 30 minutes after injection in the Abcc6^−/− mice.

[4] = tested on: Abcc6−/− mice (mouse model of PXE); test: Treatment (reversal) study: histopathology and calcium assay of muzzle skin in old mice; assay type: in vivo; details: 12-week-old mice, osmotic pump 4 mg/kg/day for 12 weeks, analysed at 24 weeks of age
Description: as §1, with “All mice were maintained on a standard diet and sacrificed at 12 weeks of age, 6 weeks after initiation of treatment (prevention study), or at 24 weeks of age, 12 weeks after initiation of treatment (reversal study). All protocols were approved by the Institutional Animal Care and Use Committee of Thomas Jefferson University.” left out
as §3, with “test. […]” for “test.”

[5] = Profile of (I a) compared to pyrophosphate and bisphosphonates
[6] = subcutaneous administration, Sprague Dawley rats; cited from earlier work
[7] = tested on: cardiovascular calcifications; details: patients on hemodialysis, 1-year treatment; cited from earlier work

plasma concentrations versus dose ([3]; osmotic pump, 0.16 to 100 mg/kg/day): dose-dependent
subcutaneous bioavailability [5]: high
SMILES: COCCOCCOC1C(OP(=O)(O)O)C(OCCOCCOC)C(OP(=O)(O)O)C(OP(=O)(O)O)C1OP(=O)(O)O (centres unmarked) [(I a), bis-oligoethylene myo-inositol tetrakisphosphate]
calcification in the dermal sheath of vibrissae in muzzle skin (von Kossa) ([1]; 0.16 mg/kg/day, 6 weeks): no effects
calcification in the dermal sheath of vibrissae in muzzle skin (von Kossa) ([1]; 0.8 mg/kg/day, 6 weeks): evident but significantly reduced calcification
calcification in the dermal sheath of vibrissae in muzzle skin (von Kossa) ([1]; 4 mg/kg/day (and above), 6 weeks, from 6 weeks of age, 4 mg/kg/day): very little, if any, calcification; also recorded: little, if any, calcification; also recorded: completely prevented ectopic calcification; also recorded: complete response
inhibition of ectopic calcification ([1]; 4 mg/kg/day, 6 weeks): ~100%
inhibition of ectopic calcification ([1]; 100 mg/kg/day, 6 weeks): ~100%
calcification, subcutaneous injections overall ([1]; subcutaneous injections at different doses and frequencies (thrice weekly and once weekly)): decreased calcification; also recorded: prevented calcification
calcification in the muzzle skin (histology) ([1]; subcutaneous injections three times per week corresponding to 4 mg/kg/day, 6 weeks): significantly reduced calcification
ectopic calcification in the muzzle skin (histology) ([1]; weekly subcutaneous injection, 0.8 mg/kg/day, 6 weeks): significantly reduced ectopic calcification
calcification in the muzzle skin (histology) ([1]; weekly subcutaneous injection, 4 mg/kg/day, 6 weeks): significantly reduced calcification
minimum active dose / minimum effective dose ([2]; continuous osmotic pump administration): 0.8 mg/kg/day
inhibition of ectopic calcification by calcium assay ([2]; osmotic pump, 0.8 mg/kg/day): 59%
inhibition of ectopic calcification by calcium assay ([2]; subcutaneous injections three times per week corresponding to 4 mg/kg/day): 63%
plasma levels over time ([3]; 2 days, 3 weeks and 6 weeks after implantation of the osmotic pump): remained largely constant; also recorded: largely consistent during treatment
plasma levels 30 minutes after subcutaneous injection ([3]; bolus subcutaneous injection versus pump administered groups): much higher than that in the pump administered groups
plasma concentrations versus dose, all groups ([3]; osmotic pump (prior to sacrifice) or 30 minutes after subcutaneous injection): scaled relatively well with the dose administered
degree of ectopic calcification in muzzle skin after treatment [4]: prevented further calcification; also recorded: calcification similar to 12-week-old Abcc6^−/− control mice; also recorded: stabilized existing calcification
degree of ectopic calcification in muzzle skin after treatment ([4]; listed as INS-3001): stabilize existing calcification
anti-osteoclastic activity [5]: no anti-osteoclastic activity
local tolerability [5]: good
Tmax in plasma [6]: about 30 minutes

SMILES: O=P(O)(O)O[C@H]1[C@H](OP(=O)(O)O)[C@@H](OP(=O)(O)O)[C@H](OP(=O)(O)O)[C@@H](OP(=O)(O)O)[C@H]1OP(=O)(O)O [IP6]
progression of cardiovascular calcifications [7]: stop the progression, albeit without regression
